Measurements from PubChem BioAssay AID1963961 (Molecular Pharmacology Branch, DTP, NCI, 2024).

System: K98450-129-R-PDC multicell spheroids, viability
Assay: Anticancer human tumor K98450-129-R-PDC patient-derived colon adenocarcinoma cell line growth inhibition [PI3K]
Conditions: for IC50: curve of first compound; for viability, T/C: stronger effect = lower value
Summary of the method: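 Stroma-containing spheroids: tumor line, pooled-donor HUVEC, hMSC. Treatments: targeted agents with PI3K inhibitors. Dosing: clinically relevant, half-log spacing, 10 microM ceiling without known Cmax. Read-out: cell viability.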

[1] = second compound 0.0316 µM, first compound 0.0316 µM
[2] = second compound 0.0316 µM, first compound 0.1 µM
[3] = second compound 0.0316 µM, first compound 0.316 µM
[4] = second compound 0.0316 µM, first compound 1 µM
[5] = second compound 0.0316 µM, first compound 3.16 µM
[6] = second compound 0.0316 µM, first compound 10 µM
[7] = second compound 0.1 µM, first compound 0.0316 µM
[8] = second compound 0.1 µM, first compound 0.1 µM
[9] = second compound 0.1 µM, first compound 0.316 µM
[10] = second compound 0.1 µM, first compound 1 µM
[11] = second compound 0.1 µM, first compound 3.16 µM
[12] = second compound 0.1 µM, first compound 10 µM
[13] = second compound 0.316 µM, first compound 0.0316 µM
[14] = second compound 0.316 µM, first compound 0.1 µM
[15] = second compound 0.316 µM, first compound 0.316 µM
[16] = second compound 0.316 µM, first compound 1 µM
[17] = second compound 0.316 µM, first compound 3.16 µM
[18] = second compound 0.316 µM, first compound 10 µM
[19] = second compound 1 µM, first compound 0.0316 µM
[20] = second compound 1 µM, first compound 0.1 µM
[21] = second compound 1 µM, first compound 0.316 µM
[22] = second compound 1 µM, first compound 1 µM
[23] = second compound 1 µM, first compound 3.16 µM
[24] = second compound 1 µM, first compound 10 µM
[25] = second compound 3.16 µM, first compound 0.0316 µM
[26] = second compound 3.16 µM, first compound 0.1 µM
[27] = second compound 3.16 µM, first compound 0.316 µM
[28] = second compound 3.16 µM, first compound 1 µM
[29] = second compound 3.16 µM, first compound 3.16 µM
[30] = second compound 3.16 µM, first compound 10 µM
[31] = second compound 10 µM, first compound 0.0316 µM
[32] = second compound 10 µM, first compound 0.1 µM
[33] = second compound 10 µM, first compound 0.316 µM
[34] = second compound 10 µM, first compound 1 µM
[35] = second compound 10 µM, first compound 3.16 µM
[36] = second compound 10 µM, first compound 10 µM
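Further: spheroids exposed to agents for seven days before read-out.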

How did the IC50 (second compound 0.0316 µM) turn out when C#Cc1c(F)ccc2cc(O)cc(-c3ncc4c(N5CC6CCC(C5)N6)nc(OCC56CCCN5CC(F)C6)nc4c3F)c12 (centres undefined) + Cc1nc(NC(=O)N2CCCC2C(N)=O)sc1-c1ccnc(C(C)(C)C(F)(F)F)c1 was run?
Its IC50 is over 10 µM.

What about the IC50 (second compound 0.1 µM) of the same compound?
The IC50 was over 10 µM.

What about the IC50 (second compound 0.316 µM) of the same compound?
Its IC50 is over 10 µM.

And the IC50 (second compound 1 µM)?
The IC50 was over 10 µM.

And the IC50 (second compound 3.16 µM)?
Its IC50 is over 10 µM.

What about the IC50 (second compound 10 µM) of the same compound?
The IC50 was 7.68 µM.

What about the viability, T/C [1] of the same compound?
Its viability, T/C is 108%.

And the viability, T/C [2]?
The viability, T/C was 97.4%.

What about the viability, T/C [3] of the same compound?
The viability, T/C was 99.1%.

And the viability, T/C [4]?
Its viability, T/C is 95.5%.

And the viability, T/C [5]?
Its viability, T/C is 93.7%.

And the viability, T/C [6]?
The viability, T/C was 83.2%.

And the viability, T/C [7]?
The viability, T/C was 122%.

And the viability, T/C [8]?
Its viability, T/C is 97%.

What about the viability, T/C [9] of the same compound?
The viability, T/C was 102%.

And the viability, T/C [10]?
Its viability, T/C is 88.7%.

And the viability, T/C [11]?
Its viability, T/C is 92.9%.

What about the viability, T/C [12] of the same compound?
Its viability, T/C is 82.2%.

And the viability, T/C [13]?
Its viability, T/C is 93.4%.

And the viability, T/C [14]?
The viability, T/C was 96.2%.

And the viability, T/C [15]?
Its viability, T/C is 93.7%.

And the viability, T/C [16]?
The viability, T/C was 83.8%.

And the viability, T/C [17]?
The viability, T/C was 90.2%.

And the viability, T/C [18]?
Its viability, T/C is 77.7%.

What about the viability, T/C [19] of the same compound?
Its viability, T/C is 89.5%.

And the viability, T/C [20]?
Its viability, T/C is 92.4%.

What about the viability, T/C [21] of the same compound?
Its viability, T/C is 89%.

What about the viability, T/C [22] of the same compound?
Its viability, T/C is 85%.

And the viability, T/C [23]?
The viability, T/C was 87.8%.

And the viability, T/C [24]?
Its viability, T/C is 76.5%.

And the viability, T/C [25]?
Its viability, T/C is 74.3%.

And the viability, T/C [26]?
The viability, T/C was 78.9%.

What about the viability, T/C [27] of the same compound?
The viability, T/C was 87.3%.

What about the viability, T/C [28] of the same compound?
The viability, T/C was 75.3%.

And the viability, T/C [29]?
Its viability, T/C is 77.4%.

And the viability, T/C [30]?
The viability, T/C was 63.5%.

And the viability, T/C [31]?
The viability, T/C was 75.6%.

And the viability, T/C [32]?
Its viability, T/C is 69.2%.

And the viability, T/C [33]?
The viability, T/C was 67.3%.

And the viability, T/C [34]?
The viability, T/C was 63.1%.

What about the viability, T/C [35] of the same compound?
Its viability, T/C is 57.6%.

And the viability, T/C [36]?
Its viability, T/C is 47.3%.

For C=CC(=O)N1CCN(c2nc(=O)n(-c3c(C)ccnc3C(C)C)c3nc(-c4c(O)cccc4F)c(F)cc23)C(C)C1 (centres undefined) + Cc1nc(NC(=O)N2CCCC2C(N)=O)sc1-c1ccnc(C(C)(C)C(F)(F)F)c1, which IC50 (second compound 0.0316 µM) is on record?
Its IC50 is 4.01 µM.

And the IC50 (second compound 0.1 µM)?
Its IC50 is 3.48 µM.

And the IC50 (second compound 0.316 µM)?
Its IC50 is 2.63 µM.

What about the IC50 (second compound 1 µM) of the same compound?
Its IC50 is 1.91 µM.

What about the IC50 (second compound 3.16 µM) of the same compound?
Its IC50 is 1.33 µM.

And the IC50 (second compound 10 µM)?
Its IC50 is 0.502 µM.

What about the viability, T/C [1] of the same compound?
Its viability, T/C is 111%.

What about the viability, T/C [2] of the same compound?
The viability, T/C was 102%.

And the viability, T/C [3]?
The viability, T/C was 97.3%.

What about the viability, T/C [4] of the same compound?
The viability, T/C was 84.5%.

And the viability, T/C [5]?
The viability, T/C was 52.8%.

And the viability, T/C [6]?
The viability, T/C was 33.1%.

And the viability, T/C [7]?
Its viability, T/C is 102%.

What about the viability, T/C [8] of the same compound?
Its viability, T/C is 94%.

And the viability, T/C [9]?
The viability, T/C was 96.8%.

What about the viability, T/C [10] of the same compound?
Its viability, T/C is 77.7%.

And the viability, T/C [11]?
Its viability, T/C is 52.4%.

And the viability, T/C [12]?
The viability, T/C was 28.2%.

And the viability, T/C [13]?
The viability, T/C was 102%.

What about the viability, T/C [14] of the same compound?
Its viability, T/C is 106%.

And the viability, T/C [15]?
Its viability, T/C is 93.6%.

What about the viability, T/C [16] of the same compound?
The viability, T/C was 78.7%.

And the viability, T/C [17]?
The viability, T/C was 44%.

And the viability, T/C [18]?
Its viability, T/C is 26.8%.

And the viability, T/C [19]?
The viability, T/C was 90.5%.

What about the viability, T/C [20] of the same compound?
Its viability, T/C is 92.7%.

And the viability, T/C [21]?
Its viability, T/C is 84.4%.

And the viability, T/C [22]?
Its viability, T/C is 69%.

What about the viability, T/C [23] of the same compound?
Its viability, T/C is 35.4%.

What about the viability, T/C [24] of the same compound?
Its viability, T/C is 22.7%.

And the viability, T/C [25]?
The viability, T/C was 83.7%.

And the viability, T/C [26]?
Its viability, T/C is 85%.

And the viability, T/C [27]?
Its viability, T/C is 86.5%.

And the viability, T/C [28]?
Its viability, T/C is 55.7%.

And the viability, T/C [29]?
The viability, T/C was 29.1%.

And the viability, T/C [30]?
The viability, T/C was 17.6%.

What about the viability, T/C [31] of the same compound?
The viability, T/C was 73.9%.

And the viability, T/C [32]?
The viability, T/C was 79.3%.

What about the viability, T/C [33] of the same compound?
Its viability, T/C is 61.6%.

And the viability, T/C [34]?
The viability, T/C was 31.1%.

And the viability, T/C [35]?
Its viability, T/C is 12.9%.

And the viability, T/C [36]?
Its viability, T/C is 8.56%.
